From ChEMBL document CHEMBL1141848, “Prenylagaramides A and B, new cyclic peptides from two strains of oscillatoria agardhii” (J Nat Prod, 1999)
The source made the active and inactive calls. Residues, ends and D or L forms follow the SMILES beside them. *: point of attachment. Prenyl = CC(C)=CC*

Columns and labels:
[1] = Inhibition of trypsin
[2] = target: Prothrombin (Homo sapiens) (UniProt P00734); assay: Inhibition of thrombin
[3] = target: Plasminogen (Homo sapiens) (UniProt P00747); assay: Inhibition of plasmin
Plasminogen (Homo sapiens), sequence (P00747 97-580 limits assumed): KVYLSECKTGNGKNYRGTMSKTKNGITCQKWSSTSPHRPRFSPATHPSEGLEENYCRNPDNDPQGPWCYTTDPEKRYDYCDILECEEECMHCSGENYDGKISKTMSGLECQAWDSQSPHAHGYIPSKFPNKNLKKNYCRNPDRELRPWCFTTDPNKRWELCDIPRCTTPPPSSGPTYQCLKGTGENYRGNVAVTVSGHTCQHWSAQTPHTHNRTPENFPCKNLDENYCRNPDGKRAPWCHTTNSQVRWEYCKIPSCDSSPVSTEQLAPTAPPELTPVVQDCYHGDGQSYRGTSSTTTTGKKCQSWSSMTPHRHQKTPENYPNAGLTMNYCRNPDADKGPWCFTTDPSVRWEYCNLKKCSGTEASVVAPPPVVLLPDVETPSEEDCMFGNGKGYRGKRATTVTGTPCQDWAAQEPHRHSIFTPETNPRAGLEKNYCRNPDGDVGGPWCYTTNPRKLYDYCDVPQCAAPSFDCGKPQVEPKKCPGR
Plasminogen (Homo sapiens), sequence (P00747 581-810 limits assumed): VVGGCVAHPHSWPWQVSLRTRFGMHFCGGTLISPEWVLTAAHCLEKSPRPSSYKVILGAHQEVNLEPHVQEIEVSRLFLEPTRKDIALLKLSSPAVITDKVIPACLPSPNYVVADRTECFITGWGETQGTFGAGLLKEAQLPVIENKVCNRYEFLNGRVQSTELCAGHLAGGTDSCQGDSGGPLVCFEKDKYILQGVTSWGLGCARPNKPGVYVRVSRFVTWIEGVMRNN

[4] = Inhibition of chymotrypsin
[5] = Inhibition of elastase
[6] = target: Cytosol aminopeptidase (Homo sapiens) (UniProt P28838); assay: Inhibition of leucine amino peptidase
Cytosol aminopeptidase (Homo sapiens), sequence (P28838 whole entry): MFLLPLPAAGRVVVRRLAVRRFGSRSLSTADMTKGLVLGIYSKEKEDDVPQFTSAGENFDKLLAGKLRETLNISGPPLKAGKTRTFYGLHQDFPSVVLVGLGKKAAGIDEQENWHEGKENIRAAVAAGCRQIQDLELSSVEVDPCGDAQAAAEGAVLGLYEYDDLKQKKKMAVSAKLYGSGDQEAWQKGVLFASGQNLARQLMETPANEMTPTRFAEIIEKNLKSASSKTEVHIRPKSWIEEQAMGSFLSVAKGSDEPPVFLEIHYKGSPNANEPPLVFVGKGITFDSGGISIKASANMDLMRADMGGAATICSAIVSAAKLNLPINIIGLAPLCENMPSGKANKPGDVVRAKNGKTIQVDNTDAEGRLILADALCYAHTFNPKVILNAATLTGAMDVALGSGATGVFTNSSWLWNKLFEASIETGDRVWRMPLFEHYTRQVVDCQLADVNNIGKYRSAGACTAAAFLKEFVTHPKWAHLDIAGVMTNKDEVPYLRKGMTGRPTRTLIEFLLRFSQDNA

Papain (Carica papaya) = target: T1, Papain (Carica papaya) (UniProt P00784); assay: Inhibition of papaya papain
T1 sequence (whole entry): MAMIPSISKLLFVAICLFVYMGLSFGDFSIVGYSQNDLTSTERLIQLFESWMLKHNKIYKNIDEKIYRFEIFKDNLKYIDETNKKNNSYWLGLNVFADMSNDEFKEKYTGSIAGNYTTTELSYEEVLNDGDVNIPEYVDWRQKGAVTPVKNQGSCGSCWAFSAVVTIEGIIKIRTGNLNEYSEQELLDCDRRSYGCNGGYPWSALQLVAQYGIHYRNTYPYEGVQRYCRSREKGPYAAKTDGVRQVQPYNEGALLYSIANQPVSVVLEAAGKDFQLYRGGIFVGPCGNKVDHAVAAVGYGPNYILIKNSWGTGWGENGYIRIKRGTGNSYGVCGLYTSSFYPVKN

P388 = assay: Cytotoxicity against mouse P388 cells; type: functional, cell-based

Measured: Activity

CC(C)=CCOc1ccc(C[C@@H]2NC(=O)[C@@H]3CCCN3C(=O)[C@H](CC(N)=O)NC(=O)[C@H](Cc3ccccc3)NC(=O)[C@H](Cc3ccccc3)NC(=O)[C@H](CCC(=O)O)NC(=O)CNC(=O)[C@H]([C@@H](C)O)NC(=O)CNC2=O)cc1 (cyclo(EFFNPY(Prenyl)GTG))
inactive: [1] | [2] | [3] | [4] | [5] | [6] | Papain (Carica papaya) | P388

CC[C@H](C)[C@@H]1NC(=O)[C@@H]2CCCN2C(=O)[C@H](Cc2ccc(O)cc2)NC(=O)[C@H](CC(C)C)NC(=O)[C@H](Cc2ccc(OCC=C(C)C)cc2)NC(=O)[C@@H]2CCCN2C(=O)[C@H](CC(N)=O)NC1=O (cyclo(INPY(Prenyl)LYP))
inactive: [1] | [2] | [3] | [4] | [5] | [6] | Papain (Carica papaya) | P388
